# Legend:
# [1] = test system: IK1-induced ventricular-like SC-CMs; experiment: Action potentials under current clamp in paced IK1-induced SC-CMs (di-LQTS model); conditions: for APD10 / APD50 / APD70 / APD90 / RMP: E4031 20 nM, mean SE; for slope of linear regression, EAD take-off potential vs. peak EAD voltage: 100 nM E4031
# Procedure: SC-CMs were singularized and plated before cellular electrophysiology experiments on 12-mm poly-d-lysine/laminin or SyntheMax pre-coated coverslips. IK1 was induced by treating singularized cells with doxycycline (2 μM) (Thermo Fisher Scientific) for 48-72 hours prior to cellular electrophysiology analysis. Borosilicate glass pipettes (3-4 MΩ) were used (Model P-97; Sutter Instruments, Novato, Calif.). Whole cell capacitance was calculated by using the time domain technique (20).
# AP were measured under current clamp at 32° C. using an Axopatch 200B amplifier and pCLAMP 10 (Molecular Devices, Sunnyvale, Calif.). […] The pipette solution comprised 150 mM K-gluconate, 5 mM EGTA, 10 mM HEPES, and 5 mM MgATP (pH 7.2, KOH). Myocytes were paced at 0.5, 1, 2, and 3 Hz with a depolarizing pulse from a programmable digital stimulator (D55000; WPI, Sarasota, Fla.). AP properties including AP amplitude; resting membrane potential; AP duration at 10% (APD10), 50% (APD50), 70% (APD70), and 90% (APD90) of repolarization; and maximum upstroke velocity (dV/dtmax) were measured (pCLAMP 10; Matlab 6.0, Natick, Mass.). […] Myocytes were paced at 0.5 and 1 Hz. […] AP properties identified above were re-measured.
# [2] = test system: ES-Kir2.1 and iPS-Kir2.1 cell lines; experiment: Initiation of cardiomyocyte differentiation (Day 0 medium); type: cell-based, human; conditions: 12 μM CHIR99021 in RPMI/B27-insulin
# Procedure: The ES-Kir2.1 and iPS-Kir2.1 cell lines were cultured in feeder-free media and prepared for differentiation as previously described with modifications (see, e.g., Lian et al. (2012) “Robust cardiomyocyte differentiation from human pluripotent stem cells via temporal modulation of canonical Wnt signaling” Proc Natl Acad Sci USA 109: E1848-57; Lian et al. (2013) “Directed cardiomyocyte differentiation from human pluripotent stem cells by modulating Wnt/6-catenin signaling under fully defined conditions” Nature Protocols 8: 162-75, each of which is incorporated herein by reference in its entirety). In particular, five days prior to differentiation (“Differentiation Day −5”), cells were harvested and seeded. Media was removed from the stem cell cultures and the cells were and washed with 1 mL DPBS per well. Next, 1 mL of Versene was added to each well and the cells were incubated at 37° C. for 5 minutes. Cells were transferred to a 50-ml tube, an equal volume of medium was added, and the cells were resuspended by gentle pipetting to singularize the cells. Cells were counted, pelleted, and resuspended in culture medium (e.g., mTeSR1, Stem Flex, etc.) to provide cells at a concentration that is pipetted into 6-well plates at approximately 2 million cells per 6-well plate. […]
# [3] = 0.5 Hz pacing, E4031 20 nM and 100 nM, ATX-II 30 nM
# [4] = drug vs baseline, E4031, ATX-II 30 nM
# [5] = 20 nM E4031, 0.5 Hz pacing, p<0.01
Molecule,"AP prolongation (APD) compared to control [1, 3]","induction of early afterdepolarizations (EADs) [1, 3]","APD10 ([1]; 0.5 Hz pacing, ATX-II 30 nM) [ms]","APD50 ([1]; 0.5 Hz pacing, ATX-II 30 nM) [ms]","APD70 ([1]; 0.5 Hz pacing, ATX-II 30 nM) [ms]","APD90 ([1]; 0.5 Hz pacing, ATX-II 30 nM) [ms]","RMP ([1]; 0.5 Hz pacing, ATX-II 30 nM) [mV]","effect on RMP [1, 4]","effect on dV/dt max [1, 4]",cell killing at initiation of differentiation [2],"effect on APD10 compared with control ([1]; 20 nM E4031, 0.5 Hz pacing)","effect on APD50 compared with control ([1]; 20 nM E4031, 0.5 Hz pacing)","effect on APD70 compared with control [1, 5]","effect on APD90 compared with control [1, 5]","slope of linear regression, EAD take-off potential vs. peak EAD voltage ([1]; FIG. 4C)","slope of linear regression, EAD take-off potential vs. peak EAD voltage ([1]; FIG. 4D, second independent experiment)"
ATX-II: late sodium current agonist (Alamone Labs); late INa enhancing drug (delayed channel inactivation),markedly increased,did not occur,45.2 ± 25.0,869.4 ± 111.7,1025.6 ± 107.4,1056.9 ± 106.5,−76.2 ± 3.65,no difference,no difference,,,,,,,
Cc1c[nH]c(-c2cnc(NCCNc3ccc(C#N)cn3)nc2-c2ccc(Cl)cc2Cl)n1 [CHIR99021],,,,,,,,,,kills all or most of the cells,,,,,,
Cc1cccc(CCN2CCC(C(=O)c3ccc(NS(C)(=O)=O)cc3)CC2)n1 [E4031],dose-dependent AP prolongation,,131.1 ± 53.4,633.8 ± 153.2,767.5 ± 164.8,802.4 ± 172.0,−70.6 ± 4.11,remains normally polarized and stable,,,No significant effect,No significant effect,significantly prolongs,significantly prolongs,−2.6±0.1,−1.68±0.09

# Source: US20190376039A1, “CELLS WITH IMPROVED INWARD RECTIFIER CURRENT” (priority 2018, published 2019)
